Laboratory results as given in ChEMBL document CHEMBL5252581, “Using a Bioactive Eremophila-Derived Serrulatane Scaffold to Generate a Unique Carbamate Library for Anti-infective Evaluations” (J Nat Prod, 2023).

What was measured:
Plasmodium falciparum [1] = assay: Antimalarial activity against chloroquine sensitive Plasmodium falciparum 3D7 assessed as parasite growth inhibition incubated for 72 hrs by DAPI staining method; format: functional, organism-based; conditions: 3D7, 72 h
Plasmodium falciparum [2] = assay: Antimalarial activity against multidrug resistant Plasmodium falciparum Dd2 assessed as parasite growth inhibition incubated for 72 hrs by DAPI staining method; format: functional, organism-based; conditions: Dd2, 72 h
[3] = Resistance index, ratio of IC50 for antimalarial activity against multidrug resistant Plasmodium falciparum Dd2 to IC50 for antimalarial activity against chloroquine sensitive Plasmodium falciparum 3D7; format: toxicity
[4] = Cytotoxicity against HEK293 cells assessed as inhibition of cell growth at 80 uM incubated for 72 hrs by alamar blue dye based fluorescence assay relative to control; format: toxicity; conditions: human
[5] = Selectivity index, ratio of IC50 for cytotoxicity against HEK293 cells to IC50 for antimalarial activity against chloroquine sensitive Plasmodium falciparum 3D7; format: toxicity, cell-based; conditions: human, read-out: Ratio IC50
[6] = Selectivity index, ratio of IC50 for cytotoxicity against HEK293 cells to IC50 for antimalarial activity against multidrug resistant Plasmodium falciparum Dd2; format: toxicity, cell-based; conditions: human, read-out: Ratio IC50
Haemonchus contortus [7] = assay: Anthelmintic activity against third stage larvae of Haemonchus contortus assessed as reduction in larval motility measured at 168 hrs by microscope based analysis; format: functional, organism-based
Haemonchus contortus [8] = assay: Anthelmintic activity against third stage larvae of Haemonchus contortus assessed as reduction in larval motility at 50 uM measured at 168 hrs by microscope based analysis relative to control; format: functional; set-up: scale not given: the % may be the effect or the level left
Haemonchus contortus [9] = assay: Anthelmintic activity against Haemonchus contortus assessed as inhibition of L4 development at 50 uM measured at 168 hrs by microscope based analysis relative to control; format: functional
Haemonchus contortus [10] = assay: Anthelmintic activity against Haemonchus contortus assessed as induction of skinny phenotype at 50 uM measured at 168 hrs by microscope based analysis; format: functional
[11] = test system: Human immunodeficiency virus 1; assay: Reversal of HIV-1 latency infected in GFP-fused human J-Lat 10.6 cells assessed as inhibition of 160 nM PMA-induced HIV production at 100 ug/ml incubated for 24 hrs by flow cytometry analysis relative to control; format: functional; conditions: Human immunodeficiency virus 1, J-Lat 10.6
Plasmodium falciparum [12] = assay: Antimalarial activity against chloroquine sensitive Plasmodium falciparum 3D7 assessed as parasite growth inhibition at 80 uM incubated for 72 hrs by DAPI staining method; format: functional
Plasmodium falciparum [13] = assay: Antimalarial activity against multidrug resistant Plasmodium falciparum Dd2 assessed as parasite growth inhibition at 80 uM incubated for 72 hrs by DAPI staining method; format: functional
[14] = Cytotoxicity against HEK293 cells assessed as inhibition of cell growth incubated for 72 hrs by alamar blue dye based fluorescence assay; format: toxicity; conditions: human
[15] = test system: Human immunodeficiency virus 1; assay: Reversal of HIV-1 latency infected in GFP-fused human J-Lat 10.6 cells assessed as inhibition of 160 nM PMA-induced HIV production incubated for 24 hrs by flow cytometry analysis; format: functional, organism-based; conditions: Human immunodeficiency virus 1, J-Lat 10.6, 24 h

Row | SMILES | IC50 (Plasmodium falciparum [1]) [µM] | IC50 (Plasmodium falciparum [2]) [µM] | Ratio IC50 [3] | inhibition at 72 h, 80 µM [4] [%] | selectivity ratio [5] | selectivity ratio [6] | IC50 (Haemonchus contortus [7]) [µM] | Activity (Haemonchus contortus [8]) [%] | inhibition at 50 µM (Haemonchus contortus [9]) [%] | Activity (Haemonchus contortus [10]) [%] | inhibition at 100 µg/mL [11] [%] | inhibition at 80 µM (Plasmodium falciparum [12]) [%] | inhibition at 80 µM (Plasmodium falciparum [13]) [%] | IC50 at 72 h [14] [µM] | EC50 [15] [µM]
1 | COC(=O)c1cc2c(c(OC)c1OC)[C@H](C)C[C@@H](OC(=O)Nc1ccc(F)cc1)[C@H]2[C@@H](C)CCC=C(C)C | 8.7 | 10.8 | 1.2 | 25 | 9.2 | 7.4 | 31.6 | 36.2 | 3.2 | 0 | 28.7 | – | – | – | –
2 | COC(=O)c1cc2c(c(OC)c1OC)[C@H](C)C[C@@H](OC(=O)Nc1cc(C(F)(F)F)cc(C(F)(F)F)c1)[C@H]2[C@@H](C)CCC=C(C)C | 4.6 | 11.6 | 2.5 | 34 | 17.5 | 6.9 | 0.8 | 16.9 | 3.6 | 0 | 39.1 | – | – | – | –
3 | COC(=O)c1cc2c(c(OC)c1OC)[C@H](C)C[C@@H](OC(=O)NS(=O)(=O)c1ccc(C)cc1)[C@H]2[C@@H](C)CCC=C(C)C | – | – | – | 11 | – | – | 6.2 | 15.6 | 21.7 | 67.5 | 20.7 | > 41 | > 41 | – | –
4 | COc1ccc(C[C@H](N)C(=O)N[C@H]2[C@@H](O)[C@H](n3cnc4c(N(C)C)ncnc43)O[C@@H]2CO)cc1 [PUROMYCIN] | 0.0429 | 0.0814 | 1.9 | – | 15.5 | 8.2 | – | – | – | – | – | – | – | 0.664 | –
5 | COC(=O)c1cc2c(c(OC)c1OC)[C@H](C)C[C@@H](OC(=O)Nc1ccc(Cl)cc1)[C@H]2[C@@H](C)CCC=C(C)C | 11.7 | 13.2 | – | 3.1 | 6.9 | 6.1 | 1.8 | 26.4 | 2.5 | 0 | 31.7 | – | – | – | –
6 | COC(=O)c1cc2c(c(OC)c1OC)[C@H](C)C[C@@H](OC(=O)Nc1ccccc1)[C@H]2[C@@H](C)CCC=C(C)C | 11.6 | – | 1.1 | 47 | 6.9 | 6.3 | > 50 | 9.6 | 4 | 0 | 29.3 | – | > 41 | – | –
7 | CCN(CC)CCCC(C)Nc1ccnc2cc(Cl)ccc12 (configuration not stated) [CHLOROQUINE] | – | – | – | – | – | – | – | – | – | – | – | – | – | > 10 | –
8 | CCc1nc(N)nc(N)c1-c1ccc(Cl)cc1 [PYRIMETHAMINE] | – | – | > 1010 | – | > 1010 | – | – | – | – | – | – | – | – | > 10 | –
9 | CO/N=C1\C[C@]2(C[C@@H]3C[C@@H](C/C=C(\C)C[C@@H](C)/C=C/C=C4\CO[C@@H]5[C@H](O)C(C)=C[C@@H](C(=O)O3)[C@]45O)O2)O[C@H](/C(C)=C/C(C)C)[C@H]1C [MOXIDECTIN] | – | – | – | – | – | – | 3 | 88.2 | 89.7 | 0 | – | – | – | – | –
10 | COC(=O)c1cc2c(c(OC)c1OC)[C@H](C)C[C@@H](OC(=O)NCc1ccccc1)[C@H]2[C@@H](C)CCC=C(C)C | – | – | – | 24 | – | – | 0.4 | 44.7 | -4.4 | 0 | < 10 | > 41 | > 41 | – | –
11 | COC(=O)c1cc2c(c(OC)c1OC)[C@H](C)C[C@@H](OC(=O)Nc1ccc(OC)cc1)[C@H]2[C@@H](C)CCC=C(C)C | 9.3 | 10.1 | 1.1 | 26 | 8.6 | 7.9 | > 50 | 18.3 | 2 | 0 | 22.9 | – | – | – | –
12 | C[C@H]1[C@@H](O)O[C@@H]2O[C@@]3(C)CC[C@H]4[C@H](C)CC[C@@H]1[C@@]24OO3 [ARTENIMOL] | – | – | 2.2 | – | > 6680 | > 3080 | – | – | – | – | – | – | – | > 4 | –
13 | C[C@](C#N)(COc1cc(C#N)ccc1C(F)(F)F)NC(=O)c1ccc(SC(F)(F)F)cc1 [MONEPANTEL] | – | – | – | – | – | – | 0.2 | 99.2 | 98 | 0 | – | – | – | – | –
14 | COC(=O)c1cc2c(c(OC)c1OC)[C@H](C)C[C@@H](OC(=O)Nc1ccc(C#N)cc1)[C@H]2[C@@H](C)CCC=C(C)C | – | – | – | 2 | – | – | 9 | 6.8 | 12 | 1.7 | 59 | < 41 | < 41 | – | 96.7
15 | COC(=O)c1cc2c(c(OC)c1OC)[C@H](C)C[C@@H](OC(=O)Nc1cccc(Cl)c1)[C@H]2[C@@H](C)CCC=C(C)C | 9.1 | 9.2 | 1 | 42 | 8.8 | 8.7 | 1.6 | 39.1 | 7.1 | 0 | 37.2 | – | – | – | –
16 | COC(=O)c1cc2c(c(OC)c1OC)[C@H](C)C[C@@H](OC(=O)Nc1ccc([N+](=O)[O-])cc1)[C@H]2[C@@H](C)CCC=C(C)C | 7.6 | 10.6 | 1.3 | 52 | 5 | 7.5 | 6.4 | 30.4 | 4.8 | 60 | 43.5 | – | – | – | –
17 | COC(=O)c1cc2c(c(OC)c1OC)[C@H](C)C[C@@H](OC(=O)Nc1ccc(C)cc1)[C@H]2[C@@H](C)CCC=C(C)C | 12.2 | 12.9 | 1.1 | 12 | 6.6 | 6.2 | 7.1 | 12.9 | 2.3 | 0 | 36.8 | – | – | – | –
18 | CC(C)=CCC[C@H](C)[C@H]1c2cc(C(=O)O)c(O)c(O)c2[C@H](C)C[C@H]1O | – | – | – | 8 | – | – | 3.6 | 16.9 | 4 | 0 | < 10 | < 41 | < 41 | – | –
